{
  "source": "patent US12276654B2",
  "about": "“Chemical probe-dependent evaluation of protein activity and uses thereof” (The University of Chicago, priority 2017, dated 2025)",
  "biological_target": "T1, FAAH (Homo sapiens, UniProt O00519)",
  "T1 construct": "endogenous in cells",
  "T1 sequence (O00519 1-579)": "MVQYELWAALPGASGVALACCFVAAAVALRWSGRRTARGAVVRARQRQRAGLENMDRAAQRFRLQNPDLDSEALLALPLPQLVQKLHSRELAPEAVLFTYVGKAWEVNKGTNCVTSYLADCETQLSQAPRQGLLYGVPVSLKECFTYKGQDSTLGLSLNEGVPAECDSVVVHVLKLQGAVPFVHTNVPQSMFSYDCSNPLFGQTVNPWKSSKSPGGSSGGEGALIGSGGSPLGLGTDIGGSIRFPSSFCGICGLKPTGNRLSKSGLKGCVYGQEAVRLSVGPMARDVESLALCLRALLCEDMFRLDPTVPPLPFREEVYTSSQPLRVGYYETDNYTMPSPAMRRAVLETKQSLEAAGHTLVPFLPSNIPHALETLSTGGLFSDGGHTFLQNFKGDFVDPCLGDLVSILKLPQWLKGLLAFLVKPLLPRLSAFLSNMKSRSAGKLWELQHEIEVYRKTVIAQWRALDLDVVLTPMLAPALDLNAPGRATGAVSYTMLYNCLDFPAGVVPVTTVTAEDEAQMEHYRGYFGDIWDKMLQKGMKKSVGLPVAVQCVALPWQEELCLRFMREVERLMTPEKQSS",
  "test": "sADPL in situ target engagement in cancer cells, FAAH",
  "assay_type": "cell-based",
  "settings": "inhibitor prior to family-wide probe",
  "experimental": "FIG. 23. In situ Target Engagement. Cancer cells were treated with DMSO as the control, with inhibitor prior to family wide probe to pre-block the active site, or with family-wide probe directly. Then sADPL workflow was applied to read out the CT difference. Serine hydrolase NCEH1 and its specific inhibitor JW480, or FAAH and inhibitor PF3845 were applied. The activity fold change was transformed from CT value with PCR amplification factor 1.91 determined by a standard qPCR curve and the activities were normalized to DMSO control at different cell lysate concentrations. […] To quantitatively measure the target engagement, different dose of JW480 was applied to either its target NCEH1, or off-target MGLL.\nAs another alternative detection method, sADPL is complementary with gel-based and MS-based detection methods. In this design, the inventors treat the live cell with several family-wide probes. The probes will label all the members of the protein families. Then one could get the labeled proteome after the cell lysis. […]\nA summary of this assay is provided below: • 1. […] In the oligo design, the orthogonal forward primers were employed for different antibody to enable the multiplexing real time PCR readout. […]\nTwo amine modified oligos were conjugated to antibody and streptavidin, respectively. […] A Taqman probe was designed for real time PCR quantification. […]",
  "data": [
    {"molecule": "O=C(Nc1cccnc1)N1CCC(Cc2cccc(Oc3ccc(C(F)(F)F)cn3)c2)CC1", "note": "[PF3845]", "values": [
      {"measurement": "FAAH activity in inhibitor competition group by sADPL, normalized to DMSO control", "value": "bring the activities down to the levels of DMSO controls"}
    ]}
  ]
}
